The record followed here is PubChem BioAssay (NCI).

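1) Cells in 96-well plates. 2) Compound, 48 h, 5 concentrations. 3) Linear interpolation between surrounding doses. 4) Unreached endpoint = highest concentration. TGI marks complete inhibition of growth.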

What all share (assay): NCI-60 cell line screen, 48 h
The test system of test [1] is COLO 205 colon.
Test [2] concerns EKVX NSCLC.
In test [3] the test system is RPMI-8226 leukemia.
Test [4] relates to HCT-116 colon.
Test [5] concerns TK-10 renal.
Test [6] has as its system SK-MEL-2 melanoma.
The subject of test [7] is A549 NSCLC.
Test [8] has as its system HOP-92 NSCLC.
The subject of test [9] is SF-268 CNS.
Test [10] has as its system SK-MEL-28 melanoma.
Test [11] concerns SK-MEL-5 melanoma.
Test [12] deals with ACHN renal.
Test [13] deals with HOP-62 NSCLC.
Test [14] has as its system MALME-3M melanoma.
The test system of test [15] is SN12C renal.

As for `C[C@@]1(Cc2ccccc2)C(=O)N2[C@@H](CO)C(c3ccccc3)O[C@]2(C)c2ccccc21` (stereo not given in full), the TGI in [1], in test [2], in test [3], in test [4], in [5] and in test [6] was above 100 µM throughout. In addition, the TGI in test [7], in test [8], in test [9], in test [10], in test [11] and in test [12] was above 100 µM each time. For the same compound, the TGI in test [13] was above 100 µM.

With `CCN(CC)CCC1(C2CCCCC2)CCC(=O)NC1=O` (stereo not given), the TGI in test [1], in [2], in test [14], in test [3], in test [4] and in [5] was above 100 µM throughout. Besides, the TGI in test [6], in test [7], in test [15], in [9], in [10] and in test [11] was above 100 µM throughout. In addition, the TGI in test [12] and in test [13] was above 100 µM each time.

On to `C[C@@H]1O[C@]2(O)[C@@H]3CCCN3S(=O)(=O)CCN2C1=O`, for which the TGI in test [1], in test [2], in [14], in [3], in test [4] and in [5] was above 100 µM throughout. Moreover, the TGI in test [7], in test [15], in test [8], in test [9], in [10] and in test [11] was above 100 µM in each case. For the same compound, the TGI in test [12] and in test [13] was above 100 µM in each case.

Regarding `O=C(Cc1ccc([N+](=O)[O-])c([N+](=O)[O-])c1CC(=O)C(=O)Nc1cc(Cl)ccc1Cl)C(=O)Nc1cc(Cl)ccc1Cl`, the TGI was 52.5 µM in test [1]; above 100 µM in [2]; above 100 µM in test [14]; above 100 µM in [3]; above 100 µM in [4]; above 100 µM in [5]. Further, the TGI in [6], in [7], in [15], in test [8], in test [9] and in [10] was above 100 µM throughout. Further, the TGI in test [11], in test [12] and in test [13] was above 100 µM throughout.

For `COc1ccccc1-n1c(N)c2c(C)c(-c3ccccc3)[nH]c2nc1=S`, the TGI in test [1], in test [14], in [3], in test [4], in test [5] and in test [6] was above 100 µM throughout. Moreover, the TGI in test [7], in [15], in test [8], in test [10], in test [11] and in [12] was above 100 µM each time. Besides, the TGI in test [13] is above 100 µM.

Regarding `COc1cc(OC)c2c(=O)c3c([N+](=O)[O-])cccc3n(C)c2c1`, the TGI in [1], in [2], in [14], in test [3], in [4] and in test [5] was above 100 µM throughout. For the same compound, the TGI in test [6], in test [7], in test [15], in [8], in test [9] and in [10] was above 100 µM each time. For the same compound, the TGI in [11], in test [12] and in test [13] was above 100 µM in each case.

As for `CCOC(=O)CCC(NC(=O)c1ccc(N=Cc2nc3ccccc3nc2-c2ccccc2)cc1)C(=O)OCC` (stereo not given), the TGI in test [1], in test [2], in test [14], in test [3], in test [4] and in test [5] was above 100 µM throughout. For the same compound, the TGI in test [6], in [7], in test [15], in test [8], in test [9] and in test [10] was above 100 µM each time. Besides, the TGI in test [11], in test [12] and in test [13] was above 100 µM in each case.

With `CCOc1ccc(/C=C(\Cl)c2ccc(OC)cc2)cc1`, the TGI in [1], in test [2], in [14], in [3], in [4] and in test [7] was above 100 µM each time. Moreover, the TGI in test [15], in [8], in test [9], in [10], in test [11] and in test [12] was above 100 µM in each case. In [13], this compound displayed a TGI above 100 µM.

In the case of `C[C@@H]1OC2(O)[C@H]3CCCN3S(=O)(=O)CCN2C1=O` (stereo not given in full), the TGI in [1], in test [2], in test [14], in test [3], in test [4] and in [5] was above 100 µM in each case. In addition, the TGI in [7], in [15], in test [8], in [9], in test [10] and in [11] was above 100 µM each time. Also, the TGI in test [12] and in test [13] was above 100 µM throughout.

For the compound `CCOC(=O)C(/C(=N\NC(=O)OC)C(=O)Nc1cc(OC)ccc1OC)c1cnc2ccccc2n1` (stereo not given), the TGI in test [1], in [2], in test [14], in test [3], in test [4] and in [5] was above 100 µM each time. Besides, the TGI in [7], in test [15], in [8], in test [9], in test [10] and in [11] was above 100 µM throughout. In addition, the TGI in test [12] and in test [13] was above 100 µM each time.
